{
  "source": "patent US20040047831A1",
  "about": "“Use of a cell extract of at least a plant of the family pontederiaceae as anti-pollution agent” (priority 2000, published 2004)",
  "tested_on": "human keratinocytes",
  "assay": "Cytotoxicity of cadmium chloride toward human keratinocytes in culture (intracellular glutathione, monochlorobimane probe), in the presence or absence of hyacinth extract",
  "type": "cell-based",
  "settings": "24 hours; for toxicity toward human keratinocytes: human keratinocytes in vitro",
  "procedure": "Heavy metals such as cadmium, nickel, lead, mercury, etc. can lead to cytotoxicity on the cells of various organs including the skin. The cytotoxic effect of cadmium on human keratinocytes in culture was evaluated by means of a technique using a fluorescent probe to measure the level of intracellular glutathione (J. C. Fernandez Checa et al. 1990, R. Kannan et al. 1993).\nThe study was performed on a monolayer culture of human keratinocytes obtained from plastic surgeries. The cells are inoculated on D-3 into 96-well culture dishes at a rate of 25 000 cells/cm^2 in 100 μl of culture medium (calf serum-free defined medium, NR2, Biofluids). The incubations are performed in an incubator at 37° C. under a humid atmosphere enriched with 5% CO2.\nThe cells are treated for 24 hours with increasing concentrations (0, 10, 25, 50, 75, 100, 150 and 200 μM) of cadmium chloride (CdCl2) alone, so as to determine its cytotoxicity. In parallel, a treatment is performed under the same conditions, but in the presence of hyacinth extract (0.125%). The incubations are performed in an incubator at 37° C., [lacuna]% CO2 under a humid atmosphere.\nAt the end of the contact period, labeling of the intracellular glutathione is performed using a specific fluorescent probe: monochlorobimane (MCB).\nBriefly, after treatment, rinse the cells with buffer (PBS) so as to remove the treatment solutions.\nAdd 100 μl per well of a 1 mM MCB solution over one hour at room temperature and protected from light.\nEliminate the MCB, and add 200 μl/well of PBS buffer.\nRead on the spectrofluorimeter (excitation: 380 nm; emission: 485 nm).\nThe fluorescence obtained is proportional to the amount of glutathione conjugated to the MCB.\nCalculate the concentration of CdCl2 that results in a 50% drop in the level of glutathione (=IC.50)",
  "data": [
    {"smiles": "[Cl][Cd][Cl]", "note": "[cadmium chloride]", "values": [
      {"measurement": "IC50", "setting": "CdCl2 alone, human keratinocyte monolayer, concentration giving 50% drop in glutathione level/cell viability, 3 independent experiments, read-out: IC.50 of cadmium chloride without protecting agent, Mean ± SEM", "result": 43.7, "unit": "µM"},
      {"measurement": "toxicity toward human keratinocytes", "setting": "listed as Cadmium chloride", "result": "considerable toxicity"},
      {"measurement": "toxicity toward human keratinocytes", "setting": "listed as cadmium", "result": "strong toxicity"}
    ]}
  ]
}
